One experiment deals with T1, ACSS2 (Homo sapiens, UniProt Q9NR19).
T1 construct: endogenous fatty acid synthesis activity in the human HCT-15 cancer cell line; endogenous in cells; host or cells: HCT-15
Description: Cellular assay of 14C acetate incorporation into histones (IC50 ACSS2 cellular histone). The following applies: HCT-15 cells. The experiment is classed as cell-based. The method, then: This protocol describes a cellular assay capable to quantify endogenous histone acetylation activity in the human HCT-15 cancer cell line following the incorporation of extracellularly administered radiolabeled ^14C acetate with a scintillation based read out on acid extracted histones.
HCT-15 cells are trypsinized, washed and suspended in DMEM culture medium supplemented with penicillin/streptomycin (100 U/mL), sodium pyruvate (1 mM), and 10% FBS
Compounds serial dilutions are prepared in 96-well V-bottom microplate from 10 mM stock solutions in DMSO. From these dilutions 0.5 µl are transferred to a fresh plate including pure DMSO as negative control. The dilutions are prepared such, that the final concentration in the assay is 1/400 of the concentration in the serial dilution. The final DMSO concentration in the assay is 0.25 %.
The cell suspension is seeded at densities of 2x10^5 cells per 170 µl into individual wells of a 96 well plate each containing 0.5 µl aliquots of compound serial dilutions and are kept for 1h in a cell incubator. To each well 30 µL of a mixture containing 0.5 mCi/mL of ^14C-acetate with full medium are added. Then, the wells are incubated for 3 hrs in the cell incubator.
Further steps of the procedure should be conducted on ice or instrumentations precooled to 4° C. Cells are sedimented in the 96-well V-bottom microplate by centrifugation (Eppendorf 5804 R) at 1200 rpm for 5 min. The supernatant is removed and the cells are washed twice with 200µL of PBS-NaB (5 mM sodium butyrate) buffer by iterative resuspension and centrifugation. Finally, the cells are resuspended in 50 µL of TEB (PBS-NaB + 0.5 % Triton X-100) and left on ice for 10 minutes. After centrifugation at 2300 rpm for 10 minutes at 4° C. the supernatant is removed, the remaining pellet is suspended in 50 µL of 0.2 M HCl and incubated over night at 4° C. After incubation the well plate is shaken for 2 minutes in a MTP plate shaker set to 1200 rpm and then centrifuged at 3700 rpm for 10 mins. The lysate is carefully aspirated (~43 µL) and transferred into a white MTP plate (Greiner bio-one 65509). 90 µL of Ultima Gold XR scintillation cocktail are added and the plates are sealed with a transparent cover tape before mixing vigorously using plate shaker set to 1200 rpm. Radioactivity from ^14C incorporation in the wells is measured as CPM count in a MicroBeta Trilux luminescence counter.

In the next experiment the target is T2, human rec ACSS2 (Homo sapiens, UniProt Q9NR19).
T2 construct: myc (C); purchased Origene
T2 sequence (Q9NR19 whole entry): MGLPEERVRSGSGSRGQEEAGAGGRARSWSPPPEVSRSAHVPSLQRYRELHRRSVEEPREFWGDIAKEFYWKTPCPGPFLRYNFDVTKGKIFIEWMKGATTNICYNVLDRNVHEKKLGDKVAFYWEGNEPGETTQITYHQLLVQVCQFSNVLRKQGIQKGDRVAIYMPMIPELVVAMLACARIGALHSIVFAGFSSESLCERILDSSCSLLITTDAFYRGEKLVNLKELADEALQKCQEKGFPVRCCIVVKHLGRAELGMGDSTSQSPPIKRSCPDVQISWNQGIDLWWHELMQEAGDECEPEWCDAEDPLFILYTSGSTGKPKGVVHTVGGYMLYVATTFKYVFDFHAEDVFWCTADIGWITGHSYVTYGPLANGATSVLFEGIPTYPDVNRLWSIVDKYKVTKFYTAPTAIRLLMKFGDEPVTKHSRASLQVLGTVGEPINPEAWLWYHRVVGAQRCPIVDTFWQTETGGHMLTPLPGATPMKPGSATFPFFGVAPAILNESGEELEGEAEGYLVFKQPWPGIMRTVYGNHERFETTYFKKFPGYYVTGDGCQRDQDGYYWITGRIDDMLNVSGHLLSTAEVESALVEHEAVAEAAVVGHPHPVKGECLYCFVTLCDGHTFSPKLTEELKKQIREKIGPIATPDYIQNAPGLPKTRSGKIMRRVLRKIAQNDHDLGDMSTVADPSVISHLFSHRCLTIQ
Kind of experiment: Biochemical activity ACSS2 assay (AMP-Glo). The following applies: human recombinant ACSS2, AMP-Glo, 180 min at 37° C. The method, then: The biochemical activity assay for ACSS2 is based on the detection of released AMP by AMP-Glo ™ Assay kit (Promega, Madison). The assay is run in three steps: the enzymatic reaction in which human rec ACSS2 activates acetate with ATP and Coenzyme A as cosubstrates to acetyI-coA thereby releasing AMP and the detection reaction of AMP by AMP Glo assay in which after the destruction of the residual ATP with AMP Glo reagent 1 produced AMP is converted to ATP that is measured in a luciferase assay system (detection reagent). The ACSS2 activity correlates with the detected luminescence signal.
The assay was performed in Perkin Elmer 384well white Proxiplates in a total volume of 8 µl.
1 nM (fc) C-term myc tagged ACSS2 (human, recombinant, Origene, Rockville, US) and a mixture of 100 µM (fc) ATP, 100 µM (fc) Coenzyme A and 500 µM (fc) sodium acetate were incubated in a total volume of 5 µl (50 mM Hepes, 1 mM Mg-chloride, 150 mM NaCl, 1 mM DTT, 0.01 % (w/v) BSA, 0.3 % DMSO, pH 7.5) in the absence or presence of the test compound (10 dilution concentrations, start conc 30 µM) for 180 min at 37° C. The reaction was stopped and residual ATP destroyed by the addition of 1 µl AMP Glo reagent solution (Promega, Madison, US). After 1 h incubation at room temperature 2 µl of AMP Glo detection reagent was added and the assay was incubated for 0.75 hr at room temperature. The luminescence signal was measured with an Envision multimode reader (Perkin Elmer LAS Germany GmbH) at 700 nm in luminescence mode. The full value used was the inhibitor-free reaction. The pharmacological zero value was generated by addition of ACSS2 inhibitor (Ac-CoA Synthase Inhibitor - CAS 508186-14-9 -Calbiochem) in a final concentration of 5 µM. The inhibitory values (IC50) were determined using the program Assay Analyzer® from GeneData.

T1 sequence (Q9NR19 whole entry): as above

The term IC50 denotes the concentration at which inhibition is half-maximal. In the case of `CCn1cnc(NC(=O)c2cc3c(nc2Cl)nc(C(O)(c2ccccc2)c2ccccc2)n3CC)n1` [Compound 99, 5-chloro-1-ethyl-N-(1-ethyl-1H-1,2,4-triazol-3-yl)-2-(hydroxydiphenylmethyl)-1H-imidazo[4,5-b]pyridine-6-carboxamide], the IC50 on ACSS2 was in the range of 0.01 to 1 nM; on human rec ACSS2, 1 to 10 nM.

For the molecule `CCn1cc(NC(=O)c2cnc3nc(C(O)(c4ccccc4)c4ccccc4)n(CC)c3c2)cn1` [Compound 113, 1-ethyl-N-(1-ethyl-1H-pyrazol-4-yl)-2-(hydroxydiphenylmethyl)-1H-imidazo[4,5-b]pyridine-6-carboxamide], the IC50 against ACSS2 and on human rec ACSS2 was 10 to 100 nM in each case.

`CCn1cc(NC(=O)c2cc3c(nc2OC)nc(C(O)(c2ccccc2)c2ccc(OC(F)F)cc2F)n3CC)cn1` (racemic) [Compound 79, 2-{[4-(difluoromethoxy)-2-fluorophenyl](hydroxy)phenylmethyl}-1-ethyl-N-(1-ethyl-1H-pyrazol-4-yl)-5-methoxy-1H-imidazo[4,5-b]pyridine-6-carboxamide]: the IC50 against ACSS2 is 1 to 10 nM; on human rec ACSS2, 10 to 100 nM.

In the case of `CCn1cnc(NC(=O)c2cc3c(nc2OC)nc(C(O)(c2ccccc2)c2ccccc2)n3CCOC)n1` [Compound 41, N-(1-ethyl-1H-1,2,4-triazol-3-yl)-2-(hydroxydiphenylmethyl)-5-methoxy-1-(2-methoxyethyl)-1H-imidazo[4,5-b]pyridine-6-carboxamide], the IC50 against ACSS2 and at human rec ACSS2 was 1 to 10 nM in each case.

As for `CCn1cc(NC(=O)c2cc3c(nc2Cl)nc(C(O)(c2ccccc2)c2ccc(OC(F)F)cc2F)n3CC)cn1` (single isomer, unassigned) [Compound 74], the IC50 on ACSS2 and at human rec ACSS2 was 1 to 10 nM each time.

With `CCn1ccc(NC(=O)c2cc3c(nc2OC)nc(C(O)(c2ccccc2)c2ccccc2)n3CC)n1` [Compound 77, 1-ethyl-N-(1-ethyl-1H-pyrazol-3-yl)-2-(hydroxydiphenylmethyl)-5-methoxy-1H-imidazo[4,5-b]pyridine-6-carboxamide], the IC50 against ACSS2 and at human rec ACSS2 was 1 to 10 nM each time.

Take `CCn1cnc(NC(=O)c2cc3c(nc2OC)nc(C(O)(c2ccccn2)c2cccs2)n3CC)n1` (racemic) [Compound 43, 1-ethyl-N-(1-ethyl-1H-1,2,4-triazol-3-yl)-2-[hydroxy(pyridin-2-yl)(thiophen-2-yl)methyl]-5-methoxy-1H-imidazo[4,5-b]pyridine-6-carboxamide]: the IC50 against ACSS2 and at human rec ACSS2 was 10 to 100 nM throughout.

With `CCn1cnc(NC(=O)c2cc3c(nc2OC)nc(C(O)(c2ccccc2)c2nccs2)n3CC)n1` (racemic) [Compound 44, 1-ethyl-N-(1-ethyl-1H-1,2,4-triazol-3-yl)-2-[hydroxy(phenyl)(1,3-thiazol-2-yl)methyl]-5-methoxy-1H-imidazo[4,5-b]pyridine-6-carboxamide], the IC50 against ACSS2 and at human rec ACSS2 was 1 to 10 nM each time.

For the molecule `CCn1cc(NC(=O)c2cc3c(nc2OC)nc(C(O)(c2ccccc2)c2ccccc2)n3CC)cn1` [Compound 105, 1-ethyl-N-(1-ethyl-1 H-pyrazol-4-yl)-2-(hydroxydiphenylmethyl)-5-methoxy-1 H-imidazo[4,5-b]pyridine-6-carboxamide], the concentration for half-maximal inhibition (IC50) on ACSS2 and at human rec ACSS2 was 1 to 10 nM throughout.

For `CCn1cnc(NC(=O)c2cc3c(nc2OC)nc(C(O)(c2ccccc2)c2cnn(C)c2)n3CC)n1` (racemic) [Compound 48, 1-ethyl-N-(1-ethyl-1H-1,2,4-triazol-3-yl)-2-[hydroxy(1-methyl-1H-pyrazol-4-yl)phenylmethyl]-5-methoxy-1H-imidazo[4,5-b]pyridine-6-carboxamide], the IC50 on ACSS2 and at human rec ACSS2 was 100 to 10000 nM in each case.

Regarding `CCn1cnc(NC(=O)c2cc3c(nc2OC)nc(C(O)(c2ccccc2F)c2ccc(OC(F)F)cc2F)n3CC)n1` (single isomer, unassigned) [Compound 71], the half-maximal inhibitory concentration (IC50) on ACSS2 and on human rec ACSS2 was 0.01 to 1 nM each time.

The values above are taken from patent US20230271956A1, “AMIDE DERIVATIVES” (Merck Patent GmbH, priority 2020, published 2023).
